In patent US9018630B2, “Heterocyclic dinaphtho thieno thiophene (DNTT) compounds for use as organic semiconductor thin films in field effect transistors and related methods” (Nippon Kayaku Kabushiki Kaisha, priority 2011, dated 2015):
Values after ≈ are worked out from the molar mass of the structure shown.

Key:
[1] = Absorption spectrums of saturated chloroform solutions, solubility ratio (Example 52, FIG. 4); format: physicochemical; conditions: for solubility ratio: from FIG. 4, solubility of the DNTT = 1; for relative intensity of the longest absorption wavelength / Solubility ratio Chloroform: saturated chloroform solutions; for relative intensity of the longest absorption wavelength: 2,9-C10-DNTT = 1; for Solubility ratio Chloroform: compound (2)-64 = 1
Source text: (§1) Absorption spectrums of saturated solutions obtained by dissolving the DNTT having a C10 alkyl group at 2,9-positions (compound (2)-64), the DNTT having a C10 alkyl group at 3,10-positions (compound (1)-12), and the like in chloroform are shown in FIG. 4. In the case of the DNTT having a C10 long-chain alkyl group, from the results, the relative intensity of the longest absorption wavelength according to the substitution position was 3.9 in 3,10-C10-DNTT (compound (1)-12) wherein the relative intensity was 1 in 2,9-C10-DNTT (compound (2)-64). […] It was clearly found out that the solubility of 3,10-C10-DNTT (compound (1)-12) was also high in a heating state (Table 10).
(§2) From FIG. 4 wherein the solubility of the DNTT was 1, the solubility ratio of the DNTT having a short alkyl chain Ref-02 was 0.1 and the solubility ratio of the DNTT having a short alkyl chain Ref-03 was 0.5. […] It was also found out that considering the solution process, the compound having an alkyl substituent at 3,10-positions has more excellent properties. Namely, use of such high solubility enables production of a field effect transistor by creating a practical ink for creating a semiconductor device or applying the ink created.

[2] = Solvent solubility, qualitative statements; format: physicochemical
Source text: as §2

[3] = Solubility at 60° C. in toluene (Example 52); format: physicochemical
Source text: as §1

[4] = Heat resistance test of TC type field effect transistors (Example 51); conditions: heat resistance test of the transistor
Experimental: Using the compound (1)-22 synthesized in Example 39 and the compound (2)-64 synthesized in Synthesis Example 14, TC type field effect transistors were created by the same operation as that in Example 49 except that a substrate treated with HMDS-SAM was used, the substrate temperature during deposition was 100° C., L=40 μm, and W=1500 μm. The obtained field effect transistors were subjected to a heat resistance test. Comparing the initial properties (μ=1.66 cm^2/Vs, Vth=−14 V, Ion/off˜10^9), the mobility was approximately 1.6 cm^2/Vs even after annealing at 100° C. and 150° C., and the values of these properties were kept approximately equal to the initial values thereof. The properties were improved, for example, Vth was shifted to a low potential side.

| SMILES | solubility ratio [1] | solvent solubility [2] | melting point | relative intensity of the longest absorption wavelength [1] | Solubility ratio Chloroform [1] | also measured |
| --- | --- | --- | --- | --- | --- | --- |
| Cc1ccc2cc3sc4c5cc6cc(C)ccc6cc5sc4c3cc2c1 [Ref-02] | 0.1 | do not dissolve in most of solvents | – | – | – | – |
| CCCCCCCCCCc1ccc2cc3sc4c5cc6cc(CCCCCCCCCC)ccc6cc5sc4c3cc2c1 [(1)-12, 3,10-didecyl dinaphtho[2,3-b:2′,3′-f]thieno[2,3-b]thiophene] | – | higher solvent solubility than that of the compound (2)-64 | 187 to 188 °C | 3.9 | 3.8 | solubility ([3]; organic solvent or mixture, 60° C., toluene): > 260 µg/mL |
| Cc1ccc2cc3c(cc2c1)sc1c2cc4ccc(C)cc4cc2sc31 [Ref-03] | 0.5 | do not dissolve in most of solvents | – | – | – | – |

Further lines, with some results ahead:

| solubility ratio [1] | solvent solubility [2] | melting point | relative intensity of the longest absorption wavelength [1] | Solubility ratio Chloroform [1] | SMILES | also measured |
| --- | --- | --- | --- | --- | --- | --- |
| 1 | does not dissolve in most of solvents | – | – | – | c1ccc2cc3c(cc2c1)sc1c2cc4ccccc4cc2sc31 [Ref-01, Dinaphtho[2,3-b:2′,3′-f]thieno[3,2-b]thiophene] | – |
| – | – | > 300 °C | – | – | c1ccc(-c2ccc3cc4sc5c6cc7cc(-c8ccccc8)ccc7cc6sc5c4cc3c2)cc1 [(1)-22, 3,10-diphenyl dinaphtho[2,3-b:2′,3′-f]thieno[3,2-b]thiophene] | thermal stability [4]: high thermal stability |
| – | – | – | 1 | 1 | CCCCCCCCCCc1ccc2cc3sc4c5cc6cc(CCCCCCCCCC)ccc6cc5sc4c3cc2c1 [(2)-64, 2,9-didecyldinaphtho[2,3-b:2′,3′-f]thieno[2,3-b]thiophene] | Solubility 60° C. toluene [3]: 45 µg/mL (≈ 72.5 µM) |
